Measurements from the supplement of paper PMC11208160.

Test: recombinant UMI read abundance after kanamycin selection (control-corrected) (log10(CPM+1)); higher = more efficient recombination; extreme values may be limits of the assay; sequences stand for … in AGTGCAGAGAAAATCGGCCAGTTTTCTCTGCCTGCAGTCCGCATGCCGTGGGACCCCTTGGGTTCTAACCTGTTGCCTAGATTTATGCAGCGGACTGCCTTTCTCCCAAAGTGATAAACCGG…AGGTTGGTTTCACT; site = the 11-nt donor
How it was run: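 The measure is log10(CPM+1) for recombinant UMIs. These were PCR-amplified across the donor–target junction and sequenced after Escherichia coli carrying a donor and donor-binding-loop pair library and a target plasmid with T7-inducible IS621 bridge recombinase was plated on IPTG (0.07 mM) plus kanamycin or unselected. CPM were averaged over two replicates and scaled by control-derived factors.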
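Note: IS621 bridge recombinase in Escherichia coli cells against a fixed T5 target plasmid.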

Sequence	recombinant UMI read abundance (log10)
ATAAGGCCATGGACCGGTTTTCCCGGTAATCCGTATTTGCC (site ATAAGGCCTGG)	1.07
ATAAGGCCATGGACCGGTTTTCCCGGTAATCCGTATTTGCC (site ATAAGGCCTGT)	0
ATAAGTCCATGGACCGGTTTTCCCGGTAATCCGTATTTGAC (site ATAAGACCTGT)	0
ATAAGTCCATGGACCGGTTTTCCCGGTAATCCGTATTTGAC (site ATAAGCCCTGT)	0.569
ATAAGTCCATGGACCGGTTTTCCCGGTAATCCGTATTTGAC (site ATAAGGCCTGT)	0.787
ATAAGTCCATGGACCGGTTTTCCCGGTAATCCGTATTTGAC (site ATAAGTCCTGT)	2.13
ATAATCGCATGGACCGGTTTTCCCGGTAATCCGTATTTGGG (site ATAATCGCTCC)	0.324
ATAGAGCCATGGACCGGTTTTCCCGGTAATCCGTATTTGAA (site ATAGAGCCTTT)	0.525
ATAGCCTCATGGACCGGTTTTCCCGGTAATCCGTATTTGCG (site ATAGCCTCTCG)	2.52
ATAGCGACATGGACCGGTTTTCCCGGTAATCCGTATTTGCG (site ATAGCGACTCG)	2.61
ATAGCTGCATGGACCGGTTTTCCCGGTAATCCGTATTTGTG (site ATAGCTGCTCA)	1.35
ATAGCTGCATGGACCGGTTTTCCCGGTAATCCGTATTTGTG (site CTAGCTGCTCA)	0.647
ATAGCTGCATGGACCGGTTTTCCCGGTAATCCGTATTTGTG (site GTAGCTGCTCA)	0.00767
ATAGCTGCATGGACCGGTTTTCCCGGTAATCCGTATTTGTG (site TTAGCTGCTCA)	0.0149
ATAGGACCATGGACCGGTTTTCCCGGTAATCCGTATTTGCT (site ATAGGACCTAG)	0
ATAGTAACATGGACCGGTTTTCCCGGTAATCCGTATTTGAG (site ATAGTAACTCT)	2.18
ATAGTACCATGGACCGGTTTTCCCGGTAATCCGTATTTGAC (site ATAGTACCTGT)	0
ATAGTAGCATGGACCGGTTTTCCCGGTAATCCGTATTTGAC (site ATAGTAGCTGT)	3.06
ATAGTAGCATGGACCGGTTTTCCCGGTAATCCGTATTTGAC (site CTAGTATCTGT)	0

Sequence	recombinant UMI read abundance (log10)
ATAGTATCATGGACCGGTTTTCCCGGTAATCCGTATTTGAA (site ATAGTATCTTT)	3.09
ATAGTATCATGGACCGGTTTTCCCGGTAATCCGTATTTGAA (site CTAGTATCTGT)	0.977
ATATAGGCATGGACCGGTTTTCCCGGTAATCCGTATTTGGC (site ATATAGGCTGC)	2.39
ATATAGGCATGGACCGGTTTTCCCGGTAATCCGTATTTGGC (site ATCTAGGCTGC)	1.31
ATATAGGCATGGACCGGTTTTCCCGGTAATCCGTATTTGGC (site ATGTAGGCTGC)	1.08
ATATAGGCATGGACCGGTTTTCCCGGTAATCCGTATTTGGC (site ATTTAGGCTGC)	0.00901
ATATATCCATGGACCGGTTTTCCCGGTAATCCGTATTTGGT (site ATATATCCTAC)	0.648
ATATGCACATGGACCGGTTTTCCCGGTAATCCGTATTTGTA (site ATATGCACTTA)	2.49
ATATGCACATGGACCGGTTTTCCCGGTAATCCGTATTTGTA (site CTATGCACTTA)	0.913
ATATGCACATGGACCGGTTTTCCCGGTAATCCGTATTTGTA (site GTATGCACTTA)	0.909
ATATGCACATGGACCGGTTTTCCCGGTAATCCGTATTTGTA (site TTATGCACTTA)	1.66
ATATGGACATGGACCGGTTTTCCCGGTAATCCGTATTTGAC (site ATATGGACTGT)	2.7
ATCAACTCATGGACCGGTTTTCCCGGTAATCCGTATTTGTG (site ATCAACTCTCA)	2.13
ATCCACGCATGGACCGGTTTTCCCGGTAATCCGTATTTGAG (site ATCCAAGCTCT)	0.00979
ATCCACGCATGGACCGGTTTTCCCGGTAATCCGTATTTGAG (site ATCCACGCTCT)	0.817
ATCCACGCATGGACCGGTTTTCCCGGTAATCCGTATTTGAG (site ATCCAGGCTCT)	0.0164
ATCCACGCATGGACCGGTTTTCCCGGTAATCCGTATTTGAG (site ATCCATGCTCT)	0.00887
ATCCGAGCATGGACCGGTTTTCCCGGTAATCCGTATTTGAG (site ATCCAAGCTCT)	0.696
ATCCGAGCATGGACCGGTTTTCCCGGTAATCCGTATTTGAG (site ATCCCAGCTCT)	0.172

Sequence	recombinant UMI read abundance (log10)
ATCCGAGCATGGACCGGTTTTCCCGGTAATCCGTATTTGAG (site ATCCGAGCTCT)	0.924
ATCCGAGCATGGACCGGTTTTCCCGGTAATCCGTATTTGAG (site ATCCTAGCTCT)	0.0162
ATCCGATCATGGACCGGTTTTCCCGGTAATCCGTATTTGGT (site ATCCGATCTAC)	0.721
ATCCTATCATGGACCGGTTTTCCCGGTAATCCGTATTTGAC (site ATCCTATCTGT)	1.58
ATCCTGGCATGGACCGGTTTTCCCGGTAATCCGTATTTGAC (site ATCCTGGCTGT)	0
ATCGATACATGGACCGGTTTTCCCGGTAATCCGTATTTGAC (site ATCAATACTGT)	1.49
ATCGATACATGGACCGGTTTTCCCGGTAATCCGTATTTGAC (site ATCCATACTGT)	0
ATCGATACATGGACCGGTTTTCCCGGTAATCCGTATTTGAC (site ATCGATACTGT)	2.32
ATCGATACATGGACCGGTTTTCCCGGTAATCCGTATTTGAC (site ATCTATACTGT)	0.652
ATCGTCACATGGACCGGTTTTCCCGGTAATCCGTATTTGCA (site ATCGTCACTTG)	2.56
ATCGTTCCATGGACCGGTTTTCCCGGTAATCCGTATTTGTT (site ATCGTTCCTAA)	0.568
ATCTAATCATGGACCGGTTTTCCCGGTAATCCGTATTTGGA (site ATCTAATCTTC)	2.05
ATCTACACATGGACCGGTTTTCCCGGTAATCCGTATTTGCT (site ATCTACACTAG)	2.26
ATCTACACATGGACCGGTTTTCCCGGTAATCCGTATTTGCT (site CTCTACACTAG)	1.56
ATCTACACATGGACCGGTTTTCCCGGTAATCCGTATTTGCT (site GTCTACACTAG)	1.41
ATCTACACATGGACCGGTTTTCCCGGTAATCCGTATTTGCT (site TTCTACACTAG)	2.05
ATCTAGACATGGACCGGTTTTCCCGGTAATCCGTATTTGAC (site ATCTAAACTGT)	2.21
ATCTAGACATGGACCGGTTTTCCCGGTAATCCGTATTTGAC (site ATCTACACTGT)	0
ATCTAGACATGGACCGGTTTTCCCGGTAATCCGTATTTGAC (site ATCTAGACTGT)	2.68
